For data set [1] the following is noted: cited from earlier work.
Data set [2] can be described thus: Stability of the crystalline form under aqueous conditions (conversion to neutral form, checked by PXRD). It is filed as physicochemical. The source says: All powder x-ray diffraction patterns were obtained using the D/Max Rapid X-ray Diffractometer (D/Max Rapid, Contact Rigaku/MSC, 9009 New Trails Drive, The Woodlands, Tex., USA 77381-5209) equipped with a copper source (Cu/Kα1.5406 angstroms), manual x-y stage, and 0.3 mm collimator. The sample was loaded into a 0.3 mm boron rich glass capillary tube (e.g., Charles Supper Company, 15 Tech Circle, Natick, Mass. 01760-1024) by sectioning off one end of the tube and tapping the open, sectioned end into a bed of the powdered sample or into the sediment of a slurried precipitate. Note, precipitate can be amorphous or crystalline. The loaded capillary was mounted in a holder that was secured into the x-y stage. A diffractogram was acquired (e.g., Control software: RINT Rapid Control Software, Rigaku Rapid/XRD, version 1.0.0, © 1999 Rigaku Co.) under ambient conditions at a power setting of 46 kV at 40 mA in reflection mode, while oscillating about the omega-axis from 0-5 degrees at 1 degree/s and spinning about the phi-axis at 2 degrees/s. The exposure time was 15 minutes unless otherwise specified. […]

The conditions of data set [3]: commercially available form (ACCOLATE), neutral molecule; cited from earlier work.

Structures can show the parent of a compound that is named as a salt.

With `COc1cc(C(=O)NS(=O)(=O)c2ccccc2C)ccc1Cc1cn(C)c2ccc(NC(=O)OC3CCCC3)cc12` [Amorphous neutral zafirlukast], the “conversion of form in the presence of water” value in data set [1] is recorded as “convert to a monohydrate form”.

Consider `COc1cc(C(=O)NS(=O)(=O)c2ccccc2C)ccc1Cc1cn(C)c2ccc(NC(=O)OC3CCCC3)cc12` [potassium salt of zafirlukast], for which the “PXRD diffractogram after exposure to aqueous conditions” value in data set [2] (after exposure to neutral or acidic aqueous conditions) is “remains unchanged”. Moreover, the “conversion back to the neutral form under aqueous conditions” value in data set [2] (aqueous conditions, either neutral or acidic) is listed as “does not convert back to the neutral form”.

Regarding `COc1cc(C(=O)NS(=O)(=O)c2ccccc2C)ccc1Cc1cn(C)c2ccc(NC(=O)OC3CCCC3)cc12` [zafirlukast, 4-(5-cyclopentyloxy-carbonylamino-1-methyl-indol-3-ylmethyl)-3-methoxy-N-o-tolylsulfonylbenzamide], the solubility in water result in data set [3] is on record as “essentially insoluble in water”.

(Values after US20050113410A1, “Pharmaceutical salts of zafirlukast” (priority 2003, published 2005).)
